Assay results: patent publication US20160030438A1, “ANTI-TUMORAL COMPOSITION COMPRISING A PI3KBETA INHIBITOR AND A RAF INHIBITOR, TO OVERCOME CANCER CELLS RESISTANCE” (SANOFI, priority 2013, published 2016)
Several values for one entry are separate records, joined by “and”; a condition that tells them apart may be missing. Equal entries are not always repeated.

Experiments:
VPS34 lipid kinase = VPS34 lipid kinase (Homo sapiens, UniProt Q8NEB9); experiment: Profiling against panel of more than 400 lipid and protein kinases (VPS34); details: biochemical
Chain of VPS34 lipid kinase (Q8NEB9 whole entry): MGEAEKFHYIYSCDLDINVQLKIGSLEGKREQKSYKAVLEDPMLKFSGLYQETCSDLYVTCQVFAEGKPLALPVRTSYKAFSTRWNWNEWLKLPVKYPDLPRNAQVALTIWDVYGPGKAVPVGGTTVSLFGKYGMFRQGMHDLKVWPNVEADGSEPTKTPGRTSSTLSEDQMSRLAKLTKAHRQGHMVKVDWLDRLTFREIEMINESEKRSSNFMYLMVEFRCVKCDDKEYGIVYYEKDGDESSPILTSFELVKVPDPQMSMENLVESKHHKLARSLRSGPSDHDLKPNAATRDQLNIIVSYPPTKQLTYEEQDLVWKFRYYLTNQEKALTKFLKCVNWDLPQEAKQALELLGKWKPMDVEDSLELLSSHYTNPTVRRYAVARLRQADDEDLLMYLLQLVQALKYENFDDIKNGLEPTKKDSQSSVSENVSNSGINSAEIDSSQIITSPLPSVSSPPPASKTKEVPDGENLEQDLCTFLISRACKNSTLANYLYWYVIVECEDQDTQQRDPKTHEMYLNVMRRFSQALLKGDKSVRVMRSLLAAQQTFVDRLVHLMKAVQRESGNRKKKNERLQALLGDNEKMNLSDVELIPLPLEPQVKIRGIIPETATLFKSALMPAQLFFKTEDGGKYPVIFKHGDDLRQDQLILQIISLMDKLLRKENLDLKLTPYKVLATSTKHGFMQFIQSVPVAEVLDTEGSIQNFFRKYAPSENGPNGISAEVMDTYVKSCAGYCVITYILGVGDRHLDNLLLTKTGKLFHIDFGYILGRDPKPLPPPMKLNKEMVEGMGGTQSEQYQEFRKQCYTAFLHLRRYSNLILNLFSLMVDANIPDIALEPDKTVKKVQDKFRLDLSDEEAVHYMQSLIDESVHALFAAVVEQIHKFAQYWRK

PI3Kdelta [1] = molecular target: T1, PI3Kdelta (Homo sapiens, UniProt O00329); experiment: Inhibition of AKT phosphorylation (pAkt-S473) in MEF-3T3-myr p110δ mouse fibroblasts; assay type: cell-based; details: pAkt-S473, MEF-3T3-myr p110δ; read-out: IC50 on PI3Kdelta in cells
Target sequence in this assay (O00329 whole entry, species assumed): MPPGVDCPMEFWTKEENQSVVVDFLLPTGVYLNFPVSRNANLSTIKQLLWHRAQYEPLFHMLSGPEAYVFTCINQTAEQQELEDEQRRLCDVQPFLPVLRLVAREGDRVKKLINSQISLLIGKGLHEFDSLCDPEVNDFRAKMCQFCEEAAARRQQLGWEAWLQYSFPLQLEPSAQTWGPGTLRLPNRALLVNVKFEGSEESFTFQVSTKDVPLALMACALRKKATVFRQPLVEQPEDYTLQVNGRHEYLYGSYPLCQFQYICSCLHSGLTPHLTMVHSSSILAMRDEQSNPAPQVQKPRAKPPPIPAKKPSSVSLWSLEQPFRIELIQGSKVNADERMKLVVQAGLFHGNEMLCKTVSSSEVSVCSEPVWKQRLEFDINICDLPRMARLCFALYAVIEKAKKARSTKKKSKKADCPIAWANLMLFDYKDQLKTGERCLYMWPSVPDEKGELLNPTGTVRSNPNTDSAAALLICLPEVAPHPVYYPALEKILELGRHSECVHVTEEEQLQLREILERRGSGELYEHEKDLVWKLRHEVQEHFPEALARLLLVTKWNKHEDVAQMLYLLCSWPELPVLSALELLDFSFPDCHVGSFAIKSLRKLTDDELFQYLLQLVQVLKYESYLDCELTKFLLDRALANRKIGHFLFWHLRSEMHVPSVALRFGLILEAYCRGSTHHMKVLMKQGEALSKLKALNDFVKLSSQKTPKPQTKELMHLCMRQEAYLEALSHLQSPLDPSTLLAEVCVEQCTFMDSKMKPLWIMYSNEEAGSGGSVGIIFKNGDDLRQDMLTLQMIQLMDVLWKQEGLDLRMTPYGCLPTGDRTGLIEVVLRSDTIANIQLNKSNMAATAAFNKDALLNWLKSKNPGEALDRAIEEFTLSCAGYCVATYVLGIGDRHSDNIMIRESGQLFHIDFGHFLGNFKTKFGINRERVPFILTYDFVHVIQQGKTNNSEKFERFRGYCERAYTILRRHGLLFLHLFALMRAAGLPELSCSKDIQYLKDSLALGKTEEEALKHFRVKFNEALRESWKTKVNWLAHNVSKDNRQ
Target sequence in this assay (P26450 whole entry partner, species assumed): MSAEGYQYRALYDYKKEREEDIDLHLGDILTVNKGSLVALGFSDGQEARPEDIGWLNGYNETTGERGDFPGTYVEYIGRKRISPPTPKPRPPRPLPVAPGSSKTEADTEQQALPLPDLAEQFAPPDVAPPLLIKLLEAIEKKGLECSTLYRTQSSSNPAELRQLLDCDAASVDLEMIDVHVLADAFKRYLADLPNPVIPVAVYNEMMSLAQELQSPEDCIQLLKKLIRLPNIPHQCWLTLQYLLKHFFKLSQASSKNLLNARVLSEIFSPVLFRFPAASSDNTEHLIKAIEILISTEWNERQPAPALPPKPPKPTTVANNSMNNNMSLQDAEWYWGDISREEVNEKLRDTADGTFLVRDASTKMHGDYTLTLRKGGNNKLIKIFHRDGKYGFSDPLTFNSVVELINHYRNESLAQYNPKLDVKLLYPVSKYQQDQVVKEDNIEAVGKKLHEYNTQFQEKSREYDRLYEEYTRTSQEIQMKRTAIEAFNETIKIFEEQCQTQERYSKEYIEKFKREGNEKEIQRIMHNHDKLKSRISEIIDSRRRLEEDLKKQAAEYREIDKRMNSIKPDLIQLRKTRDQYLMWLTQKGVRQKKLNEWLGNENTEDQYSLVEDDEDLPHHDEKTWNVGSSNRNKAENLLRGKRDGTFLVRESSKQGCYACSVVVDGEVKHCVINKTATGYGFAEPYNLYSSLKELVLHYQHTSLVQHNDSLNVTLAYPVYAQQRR

PI3Kgamma [2] = molecular target: T2, PI3Kgamma (Mus musculus, UniProt Q9JHG7); experiment: Inhibition of AKT phosphorylation (pAkt-S473) in RAW 264.7 mouse macrophages after C5a stimulation; assay type: cell-based; details: pAkt-S473, RAW 264.7, C5a; read-out: IC50 on PI3Kgamma in cells
T2 construct: RAW 264.7 mouse macrophages (after stimulation of AKT phosphorylation by C5a) for PI3Kgamma; endogenous in cells; host or cells: RAW 264.7 mouse macrophages
T2 sequence (Q9JHG7 whole entry): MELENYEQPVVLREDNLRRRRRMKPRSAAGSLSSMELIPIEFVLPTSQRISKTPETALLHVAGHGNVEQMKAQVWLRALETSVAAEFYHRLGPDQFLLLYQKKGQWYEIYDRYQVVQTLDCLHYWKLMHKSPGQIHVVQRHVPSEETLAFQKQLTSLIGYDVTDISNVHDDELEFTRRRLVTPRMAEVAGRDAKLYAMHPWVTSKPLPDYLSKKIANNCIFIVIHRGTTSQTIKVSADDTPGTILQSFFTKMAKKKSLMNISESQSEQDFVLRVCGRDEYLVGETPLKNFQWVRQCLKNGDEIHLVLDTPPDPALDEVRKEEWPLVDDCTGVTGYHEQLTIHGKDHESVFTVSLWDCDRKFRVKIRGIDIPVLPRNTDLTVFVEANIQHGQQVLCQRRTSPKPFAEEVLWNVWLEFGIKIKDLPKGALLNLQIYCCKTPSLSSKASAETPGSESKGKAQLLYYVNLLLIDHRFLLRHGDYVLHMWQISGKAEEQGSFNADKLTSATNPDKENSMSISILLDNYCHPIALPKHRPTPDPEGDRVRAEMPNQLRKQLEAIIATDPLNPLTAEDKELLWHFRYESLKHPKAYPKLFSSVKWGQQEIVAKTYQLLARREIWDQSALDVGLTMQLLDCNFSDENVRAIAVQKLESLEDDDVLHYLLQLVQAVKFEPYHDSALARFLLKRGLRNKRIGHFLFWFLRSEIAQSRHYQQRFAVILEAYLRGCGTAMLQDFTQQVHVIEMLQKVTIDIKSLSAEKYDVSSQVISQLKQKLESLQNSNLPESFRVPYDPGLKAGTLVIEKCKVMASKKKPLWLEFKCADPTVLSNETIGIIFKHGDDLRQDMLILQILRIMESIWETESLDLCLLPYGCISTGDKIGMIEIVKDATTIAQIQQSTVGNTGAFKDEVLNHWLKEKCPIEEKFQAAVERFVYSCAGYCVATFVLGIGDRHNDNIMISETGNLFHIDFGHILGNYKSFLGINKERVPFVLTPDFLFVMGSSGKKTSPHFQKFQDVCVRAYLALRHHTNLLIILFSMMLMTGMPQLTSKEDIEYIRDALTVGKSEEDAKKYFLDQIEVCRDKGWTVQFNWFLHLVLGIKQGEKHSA

PI3Kgamma [3] = molecular target: PI3Kgamma (Homo sapiens, UniProt P48736); experiment: PI3Kgamma biochemical assay; details: biochemical assays
mTOR = mTOR (Homo sapiens, UniProt P42345); experiment: mTOR inhibition; assay type: biochemical; details: up to 10 μM
VPS34 = VPS34 (Homo sapiens, UniProt Q8NEB9); experiment: Functional VPS34 cellular assay; assay type: cell-based
Chain of VPS34 (Q8NEB9 whole entry, species assumed, canonical isoform): as the sequence (Q8NEB9 whole entry) above

PI3Kβ isoform = PI3Kβ isoform (Homo sapiens, UniProt P42338); experiment: PI3Kβ biochemical assay; details: biochemical assays
PI3Kdelta [4] = molecular target: T1, PI3Kdelta; experiment: PI3Kdelta biochemical assay; details: biochemical assays
Target sequence in this assay (O00329 whole entry, species assumed): as the sequence (O00329 whole entry, species assumed) above
Target sequence in this assay (P27986 whole entry partner, species assumed): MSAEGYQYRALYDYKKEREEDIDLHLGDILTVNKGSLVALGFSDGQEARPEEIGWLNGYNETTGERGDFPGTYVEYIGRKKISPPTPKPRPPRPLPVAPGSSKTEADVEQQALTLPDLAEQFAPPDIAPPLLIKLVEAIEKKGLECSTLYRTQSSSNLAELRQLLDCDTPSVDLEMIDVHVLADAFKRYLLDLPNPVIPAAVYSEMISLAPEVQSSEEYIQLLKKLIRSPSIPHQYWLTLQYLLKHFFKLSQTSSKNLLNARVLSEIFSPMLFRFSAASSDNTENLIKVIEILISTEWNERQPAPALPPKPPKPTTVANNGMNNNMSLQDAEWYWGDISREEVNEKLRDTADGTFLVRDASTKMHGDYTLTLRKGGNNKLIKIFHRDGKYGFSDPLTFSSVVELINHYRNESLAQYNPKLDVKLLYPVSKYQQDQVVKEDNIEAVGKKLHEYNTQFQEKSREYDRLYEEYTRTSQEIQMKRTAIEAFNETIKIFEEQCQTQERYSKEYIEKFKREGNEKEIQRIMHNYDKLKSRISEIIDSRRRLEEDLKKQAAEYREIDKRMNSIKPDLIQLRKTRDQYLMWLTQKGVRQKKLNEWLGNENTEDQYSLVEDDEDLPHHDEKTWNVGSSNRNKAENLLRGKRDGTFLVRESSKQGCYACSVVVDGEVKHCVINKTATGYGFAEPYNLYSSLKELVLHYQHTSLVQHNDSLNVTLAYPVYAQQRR

PI3Kβ = PI3Kβ (Homo sapiens, UniProt P42338); experiment: Inhibition of AKT phosphorylation (pAkt-S473) in MEF-3T3-myr p110β mouse fibroblasts; assay type: cell-based; details: pAkt-S473, MEF-3T3-myr p110β; read-out: IC50 on PI3Kβ in the PI3Kβ-dependent cell line
[5] = tested on: ribosomal protein S6 phosphorylated on Ser240/244 (pS6) in A2058 cells; experiment: In vitro S6 phosphorylation inhibition (pS6 western blot) in A2058, example 8; assay type: cell-based, human; details: for inhibition at 0.1 µM: Homo sapiens
Protocol: The inhibitory effect on ribosomal S6 protein phosphorylation by both compounds alone or in combination was characterized using western blotting method which allows investigating S6 phosphorylation by detecting the expression of ribosomal protein S6 phosphorylated on Ser240/244 position (pS6).
The human melanoma A2058 cell line was purchased at ATCC (Ref number CRL-11147 Batch 5074651). The A2058 cells were cultured in DMEM High glucose medium supplemented with 10% FBS and 2 mM L-Glutamine.
Cell treatment, Western Blot experiment and calculation of percentage of pS6 inhibition were performed according to the material and method described in example 7.

BRAF mutated melanoma = details: phase I trial; cited from earlier work
[6] = tested on: human melanoma cell line WM-266-4; experiment: In vitro anti-proliferative activity (CelltiterGlo, ray design) in WM-266-4, example 1; assay type: cell-based
Protocol: Prior to in vitro combination studies, the activity of individual agents was investigated using WM-266-4 cell line. The purpose of testing individual agents was to determine the independence of their action and to determine the dilution design of the Fixed Ratio Drug Combination assay.
The human melanoma WM-266-4 cell line was purchased at ATCC (Ref number CRL-1676 Batch 3272826). The WM-266-4 cells were cultured in RPMI1640 medium supplemented with 10% FBS and 2 mM L-Glutamine.
They were diluted serially, in DMSO following a 3 or 3.3-fold dilution step in order to obtain 10 mM to 0.03 μM solutions: then each solution was diluted 50-fold in culture medium containing 10% serum before being added onto cells with a 20-fold dilution factor. The final concentrations tested were defined by a Ray design which allows characterizing the interaction of the two compounds for several fixed proportions in the mixture. The ray design used for this experiment includes one ray for each single agent and 4 combination rays. All rays have 10 concentrations (see Table 1). The DMSO concentration was 0.1% in controls and in all treated wells.
WM-266-4 cells were plated at 2500 cells/well in 96-well plates in appropriate culture medium and incubated for 6 hours at 37° C., 5% CO2. […] Cell growth was evaluated by measuring intracellular ATP using CelltiterGlo® reagent (Promega) according to the manufacturer's protocol. Briefly, CellTiterGlo® was added to each plate, incubated for 1 hour then luminescent signal was read on the MicroBeta Luminescent plate reader. Three experiments have been performed on the cell line. For each experiment, two 96-well plates are used allowing working with duplicates.
Inhibition of cell growth was estimated after treatment with one compound or the combination of compounds for four days and comparing the signal to cells treated with vehicle (DMSO).
Growth inhibition percentage (GI %) was calculated according to the following equation:
GI %=100*(1−((X−BG)/(TC−BG)) […]

Row | Structure (SMILES) | IC50 (VPS34 lipid kinase) | IC50 (PI3Kdelta [1]) | IC50 (PI3Kgamma [2]) | IC50 (PI3Kgamma [3]) | mTOR inhibition (mTOR) | IC50 (VPS34) | IC50 (PI3Kβ isoform) | IC50 (PI3Kdelta [4]) | IC50 (PI3Kβ) | inhibition at 0.1 µM ([5]; single agent 100 nM) | pS6 signal (AU-BG) ([5]; single agent 100 nM) | Inhibition % of S6 phosphorylation ([5]; single agent 1 000 nM) | pS6 signal (AU-BG) ([5]; single agent 1 000 nM) | Inhibition % of S6 phosphorylation ([5]; single agent 10 000 nM) | pS6 signal (AU-BG) ([5]; single agent 10 000 nM) | patients with at least 30% tumor shrinkage by RECIST (BRAF mutated melanoma) | IC50 ([6]; Homo sapiens, WM 266-4, approximately, read-out: IC50 with WM-266-4 sensitive cancer cells) | Absolute IC40s ([6]; single agent, WM-266-4, 96 hours, example 1) | IC40, antiproliferative effect, WM-266-4 ([6]; single agent, approximately)
1 | C[C@H]1Cc2ccccc2N1C(=O)Cc1nc(N2CCOCC2)cc(=O)[nH]1 [Compound (I), 2-{2-[(2S)-2-methyl-2,3-dihydro-1H-indol-1-yl]-2-oxoethyl}-6-(morpholin-4-yl)pyrimidin-4(3H)-one] | 180 nM | 823 nM | > 3000 nM | > 10000 nM | not inhibit mTOR | > 10000 nM | 65 nM | 465 nM | 32 nM | 8% | 27394341 AU-BG | 42% | 17416427 AU-BG | 73% | 8161752 AU-BG |  |  |  | 
2 | CCCS(=O)(=O)Nc1ccc(F)c(C(=O)c2c[nH]c3ncc(-c4ccc(Cl)cc4)cc23)c1F [Compound (II), 1-Propanesulfonamide,N-[3-[[5-(4-chlorophenyl)-1H-pyrrolo[2,3-b]pyridin-3-yl]carbonyl]-2,4-difluorophenyl]] |  |  |  |  |  |  |  |  |  | 27% | 21830955 AU-BG | 40% | 17943024 AU-BG | 62% | 11383792 AU-BG | 81% | ~84 nM | 35 nM and 34.9 nM | ~60 nM
